Data as given in PMC3665789 (PLoS ONE, 2013).
Read-outs that look alike come from different tables or passages of the source.

Tests used:
HIV-1 HE (R5/X4) = settings: read-out: EC50 (µM ± SEM), PBMCs, p24 Ag ELISA
HIV-1 NL4.3 (X4) [1] = settings: read-out: EC50 (µM ± SEM), PBMCs, p24 Ag ELISA
HIV-1 BaL (R5) = settings: read-out: EC50 (µM ± SEM), PBMCs, p24 Ag ELISA
[2] = test system: HIV-1 CI#17 (clinical isolate; X4); settings: PBMCs; CI#17, group M subtype B; p24 Ag ELISA
[3] = test system: HIV-1 DJ259 (clinical isolate; R5); settings: PBMCs; DJ259, group M subtype C; p24 Ag ELISA
[4] = test system: HIV-1 ETH2220 (clinical isolate; R5); settings: PBMCs; ETH2220, group M subtype C; p24 Ag ELISA
[5] = test system: HIV-1 UG270 (clinical isolate; X4); settings: PBMCs; UG270, group M subtype D; p24 Ag ELISA
HIV-1 NL4.3 = assay: Pre-incubation of MT-4 cells with compound, wash, then HIV-1 NL4.3 infection; assay type: cell-based; settings: MT-4 cells pre-incubated 2 h at 37°C, washed, infected with HIV-1 NL4.3; 5 days; control 100% CPE
[6] = test system: DC-SIGN-mediated transmission of HIV-1 HE; settings: for p24 Ag concentration: without compound 263.9 ng/ml
Protocol: Raji.DC-SIGN^+ cells (200 µl; 2.5×10^6 cells/ml) were exposed to high amounts of HIV-1 HE (100 µl; p24, ∼3×10^6 pg/ml) for 1 h at 37°C. Unbound virus from the Raji.DC-SIGN^+ cells was removed by washing twice with cell culture medium. In the meantime, 100 µl of various concentrations of LabyA1 were added in a 96-well plate and incubated for 1 h with the C8166 target T cells (50 µl; 2×10^6 cells/ml). The same amount of virus exposed Raji.DC-SIGN^+ cells (Raji.DC-SIGN/HE) were mixed with the antiviral drug exposed C8166 target T cells.

[7] = Cytotoxicity assay (MTS/PES); assay type: cell-based
Protocol: Cytotoxicity in PBMCs (3 days), MT-4 (5 days), HUT-78 (1 day), C8166-(5 days), HEL (3 days) and Daudi cells (3 days) was measured using the MTS/PES method. The duration of the assays is given between brackets.

HIV-1 NL4.3 (X4) [8] = settings: read-out: EC50 (µM ± SEM), MT-4 cells, MTS/PES method
HIV-1 NL4.3^AZTres. (X4) = settings: read-out: EC50 (µM ± SEM); MT-4 cells; NL4.3 resistant to azidothymidine (AZT); MTS/PES
HIV-1 IIIB^FGMres. (X4) = settings: read-out: EC50 (µM ± SEM); MT-4 cells; IIIB resistant to feglymycin (FGM); MTS/PES
[9] = test system: HSV-1 wild-type KOS (reference strain); settings: HEL cells; HSV-1 KOS; reduction of virus-induced CPE by 50%
[10] = test system: HSV-1 TK^- RV-294 (clinical isolate); settings: HEL cells, CPE
[11] = test system: HSV-1 TK^- RV-179 (clinical isolate); settings: HEL cells, CPE
[12] = test system: HSV-1 TK^- RV-117 (clinical isolate); settings: HEL cells, CPE
[13] = test system: drug-resistant HIV strains; settings: read-out: Median EC50; median over 6 drug-resistant HIV-1 strains in MT-4
CXCR4 = CXCR4 (Homo sapiens, UniProt P61073); assay: Intracellular calcium mobilization (FLIPR), U87.CD4.CXCR4 cells; assay type: cell-based; set-up: expressed in transfected cells; host or cells: U87.CD4.CXCR4 (human astroglioma U87); settings: 9.6 µM
CXCR4, sequence (P61073 whole entry): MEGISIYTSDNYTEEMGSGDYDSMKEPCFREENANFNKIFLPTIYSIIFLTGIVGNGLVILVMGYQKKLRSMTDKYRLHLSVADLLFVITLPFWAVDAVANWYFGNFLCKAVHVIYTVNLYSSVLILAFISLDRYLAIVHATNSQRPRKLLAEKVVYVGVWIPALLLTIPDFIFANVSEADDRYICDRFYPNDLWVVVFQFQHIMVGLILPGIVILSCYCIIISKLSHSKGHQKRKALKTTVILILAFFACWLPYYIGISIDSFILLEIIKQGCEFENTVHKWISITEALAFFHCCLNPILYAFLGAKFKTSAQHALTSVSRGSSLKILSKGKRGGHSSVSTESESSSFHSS
Protocol: Calcium (Ca^2+) mobilization assays were performed by the use of a fluorometric imaging plate reader (FLIPR) (Molecular Devices, Sunnyvale, CA) as described previously. Briefly, U87.CD4.CCR5 or U87.CD4.CXCR4 cells were digested by trypsin and seeded in gelatine-coated black-wall 96-well microplates at 2×10^4 cells per well. The next day, the cells were loaded with the fluorescent calcium indicator Fluo-3 acetoxymethyl ester (Molecular Probes, Leiden, The Netherlands) at 4 µM for 45 min at 37°C. Cells were washed 3 times in assay buffer (Hanks’ balanced salt solution with 20 mM HEPES buffer and 0.2% bovine serum albumin, pH 7.4) and incubated for 10 min with Laby A1. The intracellular calcium mobilization induced by LD78β in U87.CD4.CCR5 cells or by SDF-1 in U87.CD4.CXCR4 cells was then measured at 37°C by monitoring the fluorescence as a function of time simultaneously in all the wells. In addition, potential intracellular calcium mobilization induced by Laby A1 was also investigated.

## C/C=C1\NC(=O)[C@H](Cc2ccccc2)NC(=O)[C@@H]2CCCN2C(=O)[C@H](C(C)C)NC(=O)[C@H](Cc2c[nH]c3ccccc23)NC(=O)[C@]23CSC[C@H](NC1=O)C(=O)N[C@H](C(=O)O)CSSC[C@H](NC(=O)[C@@H]1CSC[C@]4(C[C@H](N)C(=O)N[C@@H](CC(N)=O)C(=O)N[C@@H](C)C(=O)N4)C(=O)N[C@@H](C(C)C)C(=O)N[C@@H](Cc4c[nH]c5ccccc45)C(=O)N[C@@H](CCC(=O)O)C(=O)N1)C(=O)N[C@@H](C2)C(=O)N[C@@H]([C@@H](C)O)C(=O)NCC(=O)N3 [LabyA1, labyrinthopeptin A1]
HIV-1 HE (R5/X4)
  EC50: 1.8 ± 0.3 µM
HIV-1 NL4.3 (X4) [1]
  EC50: 0.79 ± 0.09 µM
HIV-1 BaL (R5)
  EC50: 3.3 ± 0.4 µM
[2]
  EC50: 1 ± 0.2 µM
[3]
  EC50: 0.94 ± 0.43 µM
[4]
  EC50: 0.78 ± 0.06 µM
[5]
  EC50: 1.5 ± 0.1 µM
HIV-1 NL4.3
  % CPE after pre-incubation of cells and removal of compound: 96.8±3.2 % CPE
[6]; 9.6 µM
  giant cell formation: fully protected the cells from giant cell formation
  p24 Ag concentration: < 25 pg/mL
[6]; 1.9 and 0.19 µM
  inhibitory effect: not detectable
  p24 Ag concentration: 393700 pg/mL
[6]; read-out: EC50, DC-SIGN-mediated transmission and subsequent replication of HIV-1, Raji.DC-SIGN/HE cocultured with C8166 T cells, 24 h
  EC50: 4.1 µM
[7]; C8166 cells, 5 days
  CC50: 23 µM
[7]; Daudi cells, 3 days
  CC50: > 48 µM
[7]; HUT-78 cells, 1 day
  CC50: > 31 µM
[7]; MT-4 cells, 5 days
  CC50: 33 µM
[7]; PBMCs, 3 days
  CC50: 45 µM
HIV-1 NL4.3 (X4) [8]
  EC50: 1.7 ± 0.4 µM
HIV-1 NL4.3^AZTres. (X4)
  EC50: 1.1 ± 0.1 µM
HIV-1 IIIB^FGMres. (X4)
  EC50: 1.9 ± 0.1 µM
[9]
  EC50: 0.56 ± 0.05 µM
[10]
  EC50: 0.31 µM
[11]
  EC50: 1.9 ± 0.3 µM
[12]
  EC50: 1.9 ± 0.6 µM
[13]
  EC50: 2.1 µM
CXCR4
  induction of calcium signaling by compound itself: could not induce by itself calcium signaling
CXCR4; 100 ng/ml SDF-1α
  inhibition of SDF-1α (CXCL12)-induced intracellular calcium flux: could also not inhibit the intracellular calcium flux
